Source: patent publication US20230406851A1, “IMIDAZOPYRIDINE COMPOUNDS AND USES THEREOF” (priority 2022, published 2023)
pEC50: −log10 of the molar value.

Columns and labels:
[1] = system: rat FCA 96 hr paw model of inflammatory pain (heat hyperalgesia); assay: Heat hyperalgesia (Plantar Test) in rat FCA 96 hr paw model of inflammatory pain; format: in vivo; conditions: oral dosing 0.3-1-3-10-20 μmol/kg, 96 h after FCA
Method: (§1) One of the compounds of the present invention was evaluated in an in vivo model of inflammatory pain.
(§2) Male Sprague-Dawley rats (Charles River, St-Constant, Qc, CAN) weighing 200-225 g were utilized for the animal experiment studies. The animals were group-housed in polycarbonate, ventilated cages (filter top) in a controlled environment room (12-h light/dark cycle, 20.5-23.5° C., relative humidity: 40-70%) with food (14% Protein Rodent Maintenance Diet, Harlan Teklad, Madisson, WI, USA) and water ad libidum.
(§3) Inflammation was induced by injection of a single 40 μl Freund's complete adjuvant (FCA) intra-plantar injection into the rat's left hindpaw. All experiments were conducted 96 h after FCA administration. […]
Heat hyperalgesia (Plantar Test) was assessed using a Paw Thermal Stimulator to apply a controlled heat to the plantar surface of the affected paw. […] The heat source and timer were then turned on simultaneously; when the animal withdrew the hind paw the number of seconds was recorded. […]
(§4) Satellite animals were used to monitor the free plasma concentration of example 15 at the doses and time points used in the nociceptive tests. Free plasma EC50 values in behavioral studies were determined from 4-point concentration-response curves using non-linear regression and a sigmoidal variable slope logistic model (Prism 4.03, GraphPad Software Inc., USA).

[2] = system: rat FCA 96 hr paw model of inflammatory pain (mechanical hyperalgesia); assay: Mechanical hyperalgesia (Ugo Basile analgesy meter) in rat FCA 96 hr paw model of inflammatory pain; format: in vivo; conditions: oral dosing 0.3-1-3-10-20 μmol/kg, 96 h after FCA
Method: as §1, §2, §3
Mechanical hyperalgesia was assessed using the Ugo Basile analgesy meter (Ugo Basile, Comerio, Italy). […] The pressure required to elicit paw withdrawal was determined. […] Paw withdrawal thresholds were calculated as the mean of the two values. […]
as §4

- pEC50 ([2]; free plasma concentration, read-out: potency (EC50 free plasma concentration) in reversing mechanical hyperalgesia): 7.06
Structure (SMILES): CNC(=O)c1cc(F)c(-c2nc3cc(C)ccn3c2C[C@H]2CN(C(=O)OC)CCO2)c(F)c1 [Example 15, (S)-methyl-2-((2-(2,6-difluoro-4-(methylcarbamoyl)phenyl)-7-methylimidazo[1,2-a]pyridin-3-yl)methyl)morpholine-4-carboxylate]
- reversal of heat hyperalgesia [1]: free plasma concentration dependent reversal
- pEC50 ([1]; free plasma concentration, read-out: potency (EC50 free plasma concentration) in reversing heat hyperalgesia): 7.74
- reversal of mechanical hyperalgesia [2]: free plasma concentration dependent reversal
